The results in this text go back to US10342766B2, “6-shogaol derivatives and activities thereof” (North Carolina Agricultural and Technical State University, priority 2017, dated 2019).

Where “and” joins values, the source holds several entries; their conditions need not be identical. Identical values can stand only once.

Series [1] concerns Nrf2. The series can be described thus: Nrf2 reporter activity by Tg(gstp1:GFP) fluorescence in transgenic zebrafish embryos. Format: in vivo. To be noted: 5 μM, 24-hour treatment from 1 dpf to 2 dpf; olfactory epithelia; relative to vehicle (DMSO = 1.00). As for the experimental part:
Zebrafish AB transgenic strains Tg(gstp1:GFP) were maintained in a Pentair Aquatic Ecosystem (Apopka, Fla., United States of America) fish housing unit with 14 h light/10 h dark cycle (see Tsujita, T., Li, L., Nakajima, H., Iwamoto, N., Nakajima-Takagi, Y., Ohashi, K., Kawakami, K., Kumagai, Y., Freeman, B. A., Yamamoto, M., and Kobayashi, M. (2011) “Nitro-fatty acids and cyclopentenone prostaglandins share strategies to activate the Keap1-Nrf2 system: a study using green fluorescent protein transgenic zebrafish.” Genes Cells 16, 46-57). The fish embryos were maintained at 28.5° C. in 0.3× Danieau's solution (19.3 mM NaCl, 0.23 mM KCl, 0.13 mM MgSO4, 0.2 mM Ca(NO3)2, 1.7 mM HEPES, pH 7.0) containing 30 μg/ml phenylthiourea (PTU) to inhibit pigmentation. Tg(gstp1:GFP) cross with AB wild-type strain fluorescence embryos were used for the experiment. Zebrafish embryos were washed, dechorionated and anaesthetized before observations, and fluorescence imaging for analysis.
Transgenic zebrafish embryos at 1 day-post-fertilization (dpf) were dechorionated and placed in Petri dishes containing different chemicals diluted in 0.3× Danieau's solution containing PTU. The chemical stock was dissolved in DMSO at 5 mM concentration.
An Olympus MVX10 Fluorescence Macroscope (Olympus, Center Valley, Pa., United States of America) equipped with a Hamamatsu C9300-221 high-speed digital CCD camera (Hamamatsu City, Japan) was used for fluorescence microscopy. Tg(gstp1:GFP) fluorescent embryos were anaesthetized in tricaine and imaged at 2 dpf. MetaMorph Basic software (Olympus, Center Valley, Pa., United States of America) was used for image acquisition and analysis.
Quantification of Nrf2 Reporter Activity by Tg(gstp1:
GFP) Fluoresence in Zebrafish Model. The fluorescence intensity of the olfactory neural epithelia was quantitated using MetaMorph Basic software. In brief, GFP expression in the olfactory regions of Tg(gstp1:GFP) embryos treated with various chemicals was measured after 24-hour treatment from 1 dpf to 2 dpf. The GFP induction was detectable by fluorescence signal at the area of the olfactory epithelia in the anterior of the head region, the intensity was measured using an area of a circle of 60 pixel diameter of the fluorescence olfactory epithelia subtracted by a background non-fluorescence area next to the zebrafish embryo. Both the left and right olfactory epithelia were measured to give an average fluorescence value. The values are an average of measurements from at least 10 embryos.

Series [2] is described as follows: Formation of cysteine conjugates in mice (urine, LC/MS). The settings on record: oral gavage 200 mg/kg, urine collected in 24 h. Format: in vivo, mouse. As for the experimental part: LC/MS analysis was carried out with a Thermo-Finnigan Spectra System, which consisted of an Accela high speed MS pump, an Accela refrigerated autosampler, and an LCQ Fleet ion trap mass detector (Thermo Electron, San Jose, Calif., United States of America) incorporated with an electrospray ionization (ESI) interface. A Gemini-NX C18 column (150 mm×4.6 mm i.d., 5 μm; Phenomenex, Torrance, Calif., United States of America) was used for separation at a flow rate of 0.3 mL/min. The column was eluted with 100% A (5% aqueous methanol with 0.2% formic acid) for 1 min, followed by linear increases in B (95% aqueous methanol with 0.2% formic acid) to 55% from 1 to 4 min, to 85% from 4 to 25 min, then to 100% B from 25 to 30 min, and then with 100% B from 30 to 35 min. The column was then re-equilibrated with 100% A for 5 min. The LC eluent was introduced into the ESI interface. The positive ion polarity mode was set for the ESI source with the voltage on the ESI interface maintained at approximately 4.6 kV. Nitrogen gas was used as the sheath gas and auxiliary gas. […] The mass range was measured from 100 to 800 m/z. […]
Enzymatic deconjugation of mouse urine was performed as described previously with slight modifications. […] The resulting suspension was centrifuged at 17,000 g for 5 min, and 10 μL of supernatant was analyzed directly by LC/MS.

Series [3] in a line: Biotransformation in zebrafish embryos (cysteine conjugates, LC/MS). Format: in vivo. The settings on record: 5 μM in incubation medium, 8 hpf to 24 hpf. As for the experimental part:
Fifty zebrafish embryos at the 8 hour-post-fertilization (hpf) stage were incubated at 28.5° C. in 0.3× Danieau's solution (19.3 mM NaCl, 0.23 mM KCl, 0.13 mM MgSO4, 0.2 mM Ca(NO3)2, 1.7 mM HEPES, pH 7.0) with or without 5 μM 18 and 25-27, respectively. At 24 hpf, embryos were dechorionated manually and the chorions were carefully removed one by one from the culture medium. The zebrafish embryos were harvested and kept at −80° C. till analyzed by LC/MS.
200 μL Sodium acetate buffer solution (pH 5.0) was added to 50 zebrafish embryos. Samples were homogenized for 90 s by an Omni Bead Ruptor Homogenizer (Kennesaw, Ga., United States of America). 10 μL 10% ascorbic acid and 300 μL sodium acetate buffer were added to the homogenates. The mixture was incubated in the presence of β-glucuronidase (250 U) and sulfatase (3 U) at 37° C. for 45 min, and then 600 μL MeOH with 1% acetic acid was added. The resulting mixture was vortexed for 30 s and then centrifuged at 17000 g for 10 min. The supernatant was removed and evaporated under a gentle stream of nitrogen. The residue was reconstituted in 150 μL 90% MeOH with 0.2% acetic acid (AA), and 10 μL was analyzed directly by LC/MS.
LC/MS analysis was carried out with a Thermo-Finnigan Spectra System, which consisted of an Accela high speed MS pump, an Accela refrigerated autosampler, and an LCQ Fleet ion trap mass detector (Thermo Electron, San Jose, Calif., United States of America) incorporated with an electrospray ionization (ESI) interface. A Gemini-NX C18 column (150 mm×4.6 mm i.d., 5 μm; Phenomenex, Torrance, Calif., United States of America) was used for separation at a flow rate of 0.3 mL/min. The column was eluted with 100% A (5% aqueous methanol with 0.2% formic acid) for 1 min, followed by linear increases in B (95% aqueous methanol with 0.2% formic acid) to 55% from 1 to 4 min, to 85% from 4 to 25 min, then to 100% B from 25 to 30 min, and then with 100% B from 30 to 35 min. The column was then re-equilibrated with 100% A for 5 min. The LC eluent was introduced into the ESI interface. The positive ion polarity mode was set for the ESI source with the voltage on the ESI interface maintained at approximately 4.6 kV. Nitrogen gas was used as the sheath gas and auxiliary gas. Optimized source parameters, including capillary temperature (260° C.), sheath gas flow rate (31 arbitrary units), auxiliary gas flow rate (16 units), tube lens (34 V), and capillary voltage 9 V, were tuned using authentic samples. The collision-induced dissociation (CID) was conducted with an isolation width 2 Da and normalized collision energy of 35 for MS^2. The mass range was measured from 100 to 800 m/z. Data acquisition was performed with Xcalibur version 2.0 (Thermo Electron, San Jose, Calif., United States of America).

As to `CCCCCCCC(=O)/C=C/c1ccc(O)c(O)c1` [Compound 27], in series [1], the “Ratio/CTL, Tg(gstp1:GFP) fluorescence signal” value is 9.19 and 9.19 ± 0.12. The “Cysteine conjugates found in mouse urine” value in series [2] is “conjugate 36 and its reduced form 36a, three additional conjugates 37, 37a, and 37b”. Also, in series [3], the “Cysteine conjugates found in zebrafish embryos” value was “four cysteine conjugates 36, 36a, 37, and 37b were found”.
